# Assay results taken from publication PMC4704828, “Effect of Methamphetamine on Spectral Binding, Ligand Docking and Metabolism of Anti-HIV Drugs with CYP3A4” (PLoS ONE, 2016).
# Like-named read-outs stand apart in the source and are kept apart here.
# Legend:
# [1] = system: CYP3A4; settings: HLMs; for decrease in formation of hydroxy ritonavir: substrate ritonavir 2 μM
# Description: Briefly, the metabolite formations were assessed in incubation mixtures (0.5 mL) containing 100 mM phosphate buffer (pH 7.4), HLMs (0.1 mg/mL), and 5 mM Mgcl2 [13, 14]. The incubation mixtures were pre-incubated with six different concentrations of Meth ranging from 3 μM to 1000 μM for 10 min, followed by the addition of 5 μl stock solution of PI. The entire mixture was incubated in water bath at 37°C for 15 min. […] Later, the reactions were initiated upon the addition of 100 μl of 25 mM NADPH (final concentration of 5 mM) solution to each of the tube and incubated in water bath at 37°C for 60 min. […] Then, the tubes were vortexed and centrifuged at 500 g for 10 min and supernatant was transferred into vials for analysis by LC-MS/MS.
# Standard curves for each analyte with IS were generated in blank HLMs incubation mixture as described above. The carry over test was performed by injecting an extra blank following the injection of upper limit of quantitation (ULOQ) of the standard curve with an IS. The LC-MS/MS methods were developed for each analyte along with its metabolite using 3200 QTRAP LC-MS/MS system, AB Sciex. […] (Fig 1, Table 1). A source temperature of 500°C, ion spray voltage of 5500 V, curtain gas of 20, GS 1 & 2 of 50, and dwell time of 200 msec were used for the determination of all analytes. The MRM method parameters such as declustering potential (DP), entrance potential (EP), collision energy (CE), and collision cell exit potential (CXP), were listed in the Table 1 along with the MRM transitions.
# All the analytes were separated on reverse phase XTerra ® MS C18 column (4.6X50mm, i.d, 3.5 μm) using a Shimadzu LC-20AD HPLC system (CA, USA). A binary gradient elution method comprising of mobile phases (acetonitrile with 0.1% formic acid and water with 0.1% formic acid) with a flow rate of 0.5 mL/min was employed. […] Data acquisition and analyses were performed using the Analyst 1.4.2 software package (Applied Biosystems, Foster City, CA, USA).
# [2] = biological target: CYP3A4 (Homo sapiens, UniProt P08684); experiment: biochemical
# Sequence of CYP3A4 (Homo sapiens, UniProt P08684) (P08684 whole entry): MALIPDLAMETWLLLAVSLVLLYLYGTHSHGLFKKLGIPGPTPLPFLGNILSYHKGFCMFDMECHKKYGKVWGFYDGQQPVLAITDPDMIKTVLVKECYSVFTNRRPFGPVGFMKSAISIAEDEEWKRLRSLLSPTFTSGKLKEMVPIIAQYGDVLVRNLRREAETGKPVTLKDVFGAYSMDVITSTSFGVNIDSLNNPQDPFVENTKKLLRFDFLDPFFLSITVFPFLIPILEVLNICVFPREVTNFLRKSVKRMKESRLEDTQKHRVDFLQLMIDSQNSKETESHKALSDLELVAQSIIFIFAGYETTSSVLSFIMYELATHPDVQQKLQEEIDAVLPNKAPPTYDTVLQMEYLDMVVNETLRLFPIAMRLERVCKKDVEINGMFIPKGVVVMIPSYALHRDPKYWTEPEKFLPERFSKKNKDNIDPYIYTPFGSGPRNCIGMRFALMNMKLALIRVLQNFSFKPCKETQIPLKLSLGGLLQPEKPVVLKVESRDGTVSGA
# Description: Histidine tagged CYP3A4 enzyme was expressed in E. coli and purified on Ni-NTA agarose column as described previously. Briefly, CYP3A4 cDNA was introduced into TOPP3 strain of E. coli by transformation and the cells were plated on LB ampicillin plate with tetracycline. The next day, a viable and isolated colony was grown in TB media for 48 h to induce CYP3A4. The cultures were harvested by centrifugation and CYP3A4 was extracted from the membrane using detergent followed by ultracentrifugation. The supernatant was loaded on a Ni-NTA agarose column for further purification. The purified enzyme was dialyzed and final preparation was stored at -80^οC until use.
# The spectral change was recorded by using a UV/Vis double beam spectrophotometer (6800 UV/VIS JENWAY spectrophotometer) as described earlier. Briefly, 0.5 μM of purified CYP3A4 enzyme was incubated with 2 ml of 0.1 M HEPES buffer for 3 min and distributed equally between the sample and reference cuvettes. Depending upon the solvent used to solubilize methamphetamine or PIs, equal quantities of either methanol or water was added into the reference cuvette with final volume of the external solvent <1%. Increasing concentrations of methamphetamine was added to the sample cuvette while the same volume of solvent was added into the reference cuvette and the spectral change was recorded. For experiments involving PIs, different concentrations of PIs were added into the sample cuvette and the spectral change was recorded with a 2 min interval between each addition. […] Type I ligands displace the heme water ligand, thus shifting the iron spin equilibrium towards the high-spin form resulting in a spectrum, which is characterized by an increase in the absorbance at 390 nm (high spin) and a decrease at 420 nm (low spin). Type II ligands containing nitrogen heterocycles replace the water ligand to stabilize the low-spin form resulting in a spectrum that is characterized by an increase in the spectrum at ~430 nm and a decrease at ~400 nm. The effect of methamphetamine on the spectral binding of PIs was determined by incubating the CYP3A4 enzyme with 100 μM of methamphetamine and titrating with increasing concentrations of PIs.
# The KD and δAmax were determined by fitting the curve (absorbance vs. concentration) with hyperbolic equation using non-regression analysis in sigma plot 11 (Systat Software, San Jose, CA). The p-values were determined using One way ANOVA with Dunnet’s post-hoc test and values <0.05 were considered statistically significant.
smiles,measurement,setting,value
CN[C@@H](C)Cc1ccccc1 [methamphetamine],decrease in formation of hydroxy ritonavir,[1]; 100 μM methamphetamine,23.3 ± 3.8%
same,decrease in formation of hydroxy ritonavir,[1]; 1000 μM methamphetamine,46.2 ± 3.3%
same,effect on metabolism of lopinavir (lopinavir M1 formation),"[1]; methamphetamine 3 μM to 1000 μM, substrate lopinavir 10 μM",did not affect
same,effect on metabolism of nelfinavir M8 (decrease in substrate concentration),"[1]; methamphetamine 3 μM to 1000 μM, substrate nelfinavir M-8 1 μM",did not affect
same,Kd,"[2]; KD, methamphetamine alone titrated with CYP3A4, hyperbolic fit",204 ± 18 µM
same,spectral transition (low to high spin) with CYP3A4,[2]; at saturating concentration of methamphetamine,approximately 20%
same,type of spectral change upon binding to CYP3A4,"[2]; increase in absorbance at 390 nm, decrease at 418 nm",type I
same,δAmax,"[2]; methamphetamine alone titrated with CYP3A4, hyperbolic fit",0.016±0.001
COC(=O)N[C@H](C(=O)N[C@@H](Cc1ccccc1)[C@@H](O)CN(Cc1ccc(-c2ccccn2)cc1)NC(=O)[C@@H](NC(=O)OC)C(C)(C)C)C(C)(C)C [Atazanavir],δAmax,[2]; human,0.0045 ± 0.0002
Cc1c(O)cccc1C(=O)N[C@@H](CSc1ccccc1)[C@H](O)CN1C[C@H]2CCCC[C@H]2C[C@H]1C(=O)NC(C)(C)C [Nelfinavir],δAmax,[2]; human,0.0068 ± 0.0001
CCC[C@@]1(CCc2ccccc2)CC(O)=C([C@H](CC)c2cccc(NS(=O)(=O)c3ccc(C(F)(F)F)cn3)c2)C(=O)O1 [Tipranavir],δAmax,[2]; human,0.0050 ± 0.0005
